SMILES strings stand for the structures.

In experiment [1] the target is T1, Recombinant human ASGPR protein (Homo sapiens, UniProt P07306).
T1 construct: purchased R&D Systems 4394-AS
T1 sequence (P07306 1-291): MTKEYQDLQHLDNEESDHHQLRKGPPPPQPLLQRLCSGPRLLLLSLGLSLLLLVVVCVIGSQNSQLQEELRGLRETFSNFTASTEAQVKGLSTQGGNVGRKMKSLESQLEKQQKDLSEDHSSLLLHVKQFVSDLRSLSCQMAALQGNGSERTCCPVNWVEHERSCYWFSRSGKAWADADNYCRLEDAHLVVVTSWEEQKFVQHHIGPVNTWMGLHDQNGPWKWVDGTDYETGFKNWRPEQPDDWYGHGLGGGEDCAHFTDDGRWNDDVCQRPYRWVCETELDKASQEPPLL
Put plainly: GalNAc-PAA human ASGPR1 competition binding assay. The settings on record: competition with GalNAc-PAA-biotin 500 ng/ml. The procedure:
Protocol. Recombinant human ASGPR protein (R&D Systems Catalog #4394-AS; Minneapolis, MN, USA) was reconstituted to 200 μg/ml in Assay Buffer (20 mM HEPES (TEKnova Catalog #H1030; Hollister, CA, USA), 150 mM NaCl (Promega Catalog #V4221; Madison, WI, USA), 1 mM CaCl2 (Alfa Aesar Catalog #J63122; Tewksbury, MA, USA)). Nunc-Immuno™ MicroWell™ 96 well solid plates (Sigma Catalog #M9410; Burlington, MA, USA) were coated with 300 ng of ASGPR protein per well by diluting the protein to 3 μg/ml in Assay Buffer and adding 100 μl to each well. A few wells were left without ASGPR protein for controls in which 100 μl of Assay Buffer were added. The plate was incubated overnight at 4° C. After overnight incubation, coating solution was discarded and the wells were blocked with 150 μl/well of Blocking Buffer (1% Bovine Serum Albumin (BSA) in Assay Buffer; Sigma Catalog #A3059-100G; Burlington, MA, USA) for 2 hours at 4° C. Frozen stock of GalNAc-PAA-biotin (GlycoNZ Catalog #GNZ-0031-BP, 1 mg/ml in Assay Buffer; Auckland, NZ) was thawed and diluted 1:1000 in Assay Buffer to create a 1000 ng/ml 2× working solution. Competitor compounds were reconstituted to 100 mM in DMSO. If compounds were insoluble at this concentration, they were further diluted in DMSO. Compounds were diluted 1 to 12.5 (10 μl DMSO stock diluted to 125 μl) in Assay Buffer, then 5 fold serially diluted. The DMSO concentration in the 2× working solution of the first well is 8%, for a final starting DMSO concentration of 4%. In a separate deep-well plate (NEST Catalog #503501; Woodbridge, NJ, USA), equal amounts of 1000 ng/ml GalNAc-PAA and serially diluted compounds were combined, for a final concentration of 500 ng/ml GalNAc-PAA and 4 mM compound (top concentration), assuming that the compound concentration of the DMSO stock solution was 100 mM. Plates with Blocking Buffer were removed from refrigerator and blocking solution was discarded. The wells were washed with 200 μl of Assay Buffer three times. After the last wash, plates were tapped dry on paper towels to remove excess liquid.
Next, 100 μl of GalNAc-PAA-biotin premixed with serially diluted compounds was added into each well. For control, several wells containing 500 ng/ml GalNAc-PAA-biotin were included. Plates were incubated for 2 hours at room temperature on an orbital shaker at 100 rpm. After incubation, compound solutions were discarded and each well was washed with 200 μl Assay Buffer three times. Streptavidin-HRP (R&D Systems catalogue #DY998; Minneapolis, MN, USA) was diluted 1:200 in Assay Buffer. 100 μl of the diluted Streptavidin-HRP was added to each well and incubated at room temperature for 45 minutes, protected from light. Streptavidin-HRP was then discarded and each well was washed with 200 μl of Assay Buffer three times. 3,3′,5,5′-Tetramethylbenzidine (TMB) Substrate color reagents A and B (R&D Systems catalog #DY999; Minneapolis, MN, USA) were mixed at a ratio of 1:1 and 100 μl was added to each well. After a 5 minute incubation, 50 μl of Stop Solution (R&D Systems catalog #DY994; Minneapolis, MN, USA) was added to each well. Plates were shaken for 10 seconds using the orbital shaker in the plate reader and read at 450 nm. […] Normalized data were analyzed using a nonlinear-fit of normalized data with a four-parameter sigmoidal dose-response variable slope model.

The target in experiment [2] is T2, Biotinylated Human TNF-α Protein (active trimer) (Homo sapiens, UniProt P01375).
T2 construct: purchased ACROBiosystems TNA-H82E3
Put plainly: Octet (BLI) binding to TNF-α. The note with it: 1:1 binding model, N.B. = No Binding. As to the method:
Protocol. The binding to IL-17A was measured by Bio-Layer Interferometry (BLI) using the Sartorius Octet 96e platform (Goettingen, Germany). The binding assay was performed using Streptavidin (SA) Dip and Read Biosensors (Sartorius Catalog #18-5019; Goettingen, Germany) in OptiPlate-96F, Black, 96-well, Pinch bar design, plates (Perkin Elmer Catalog #6005270; Waltham, MA, USA) with the following steps: (1) 60 seconds of baseline; (2) 600 seconds of loading with 50 nM TNF-α (Biotinylated Human TNF-α Protein, His, Avitag (active trimer); ACROBiosystems Catalog #TNA-H82E3; Newark, DE, USA); (3) 60 seconds of baseline; (4) 120 seconds of quenching with 50 μg/ml of Biocytin (Thermo Fisher Catalog #B1592; Waltham, MA, USA); (5) 60 seconds of baseline; (6) 180 seconds of association with a dilution series of ligand consisting of seven concentrations. The eighth tip in the column was run in Assay Buffer (Phosphate Buffered Saline (PBS; Gibco Catalog #10010; Pottstown, PA, USA)+0.05% Tween 20 (v/v) (Fisher BioReagents Catalog BP337-500; Pittsburgh, PA, USA)+0.1% BSA (w/v) (Rockland Catalog #BSA-50; Pottstown, PA, USA)) to serve as a reference sensor, the signal of which was subtracted from the sample sensors. (7) 180 seconds of dissociation in Assay Buffer.
Results. Data analysis was done using the Octet Data Analysis HT software (Sartorius, Goettingen, Germany). Processed data was globally fit to a 1:1 binding model for determination of the equilibrium dissociation constant (KD).
Background: In BLI a coated tip is dipped into the sample, and binding shifts an interference pattern.

T2 sequence (P01375 77-233 limits assumed): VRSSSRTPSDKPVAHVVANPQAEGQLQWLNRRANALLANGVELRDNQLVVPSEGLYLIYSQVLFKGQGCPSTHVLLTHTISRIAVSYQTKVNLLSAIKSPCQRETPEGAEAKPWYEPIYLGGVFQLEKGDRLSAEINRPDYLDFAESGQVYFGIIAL

As usually defined, the Ki is a measure of affinity in units of concentration, obtained from inhibition or displacement. Turning to `CCC(=O)N[C@H]1CO[C@H](COCCOCCOCCOCCn2cc(COCCNC(=O)CNC(=O)CCC(=O)N3CCN(Cc4ccc(-c5c[nH]c6ccncc56)c(OCCc5ccc(-c6cccc7ccncc67)cc5)c4)CC3)nn2)[C@H](O)[C@@H]1O` [Compound 106], the Ki in experiment [1] came to 1100 nM. The “Octet Kd TNF-α” value in experiment [2] is listed as “N.B”.
The like results for `CCC(=O)NC1COC(COCCOCCOCCOCCn2cc(COCC(COCc3cn(CCOCCOCCOCCOCC4OCC(NC(=O)CC)C(O)C4O)nn3)(COCc3cn(CCOCCOCCOCCOCC4OCC(NC(=O)CC)C(O)C4O)nn3)NC(=O)CNC(=O)CCOCCOCCC(=O)N3CCN(Cc4ccc(-c5c[nH]c6ccncc56)c(OCCc5ccc(-c6cccc7ccncc67)cc5)c4)CC3)nn2)C(O)C1O` (stereo not shown) [Compound 103] were, in that order, 200 nM and “N.B”.
Consider `CCC(=O)NC1COC(COCCOCCOCCOCCn2cc(COCCNC(=O)CNC(=O)CCOCCOCCOCCOCCOCCOCCC(=O)N3CCN(Cc4ccc(-c5c[nH]c6ccncc56)c(OCCc5ccc(-c6cccc7ccncc67)cc5)c4)CC3)nn2)C(O)C1O` (stereo not shown) [Compound 105], for which the Ki in experiment [1] is 600 nM. The “Octet Kd TNF-α” value in experiment [2] is given as “N.B”.
On to `CCC(=O)NC1COC(COCCOCCOCCOCCn2cc(COCC(COCc3cn(CCOCCOCCOCCOCC4OCC(NC(=O)CC)C(O)C4O)nn3)(COCc3cn(CCOCCOCCOCCOCC4OCC(NC(=O)CC)C(O)C4O)nn3)NC(=O)CNC(=O)CCC(=O)N3CCN(Cc4ccc(-c5c[nH]c6ccncc56)c(OCCc5ccc(-c6cccc7ccncc67)cc5)c4)CC3)nn2)C(O)C1O` (stereo not shown) [Compound 104], for which the Ki in experiment [1] was determined as 200 nM. For the same molecule, the “Octet Kd TNF-α” value in experiment [2] was “N.B”.
For the molecule `CCC(=O)N[C@H]1CO[C@H](COCCOCCOCCOCCn2cc(COCCNC(=O)CNC(=O)CCOCCOCCC(=O)N3CCN(Cc4ccc(-c5c[nH]c6ccncc56)c(OCCc5ccc(-c6cccc7ccncc67)cc5)c4)CC3)nn2)[C@H](O)[C@@H]1O` [Compound 107], the Ki in experiment [1] came out at 800 nM. The “Octet Kd TNF-α” value in experiment [2] was “N.B”.

Source of the values: patent US20260256921A1, “BIFUNCTIONAL MOLECULES TO TARGET DEGRADATION OF TUMOR NECROSIS FACTOR” (Biohaven Therapeutics Ltd., priority 2023, published 2026).
